Patent publication US20190284176A1, “COMPOSITIONS AND METHODS FOR TREATING CARDIOMYOPATHY” (CASE WESTERN RESERVE UINVERSITY, priority 2018, published 2019)
Entries after “also recorded” stand apart in the source; their conditions may differ.

Legend:
CCR2 [1] = target: T1, CCR2 (Mus musculus, UniProt P51683); experiment: RS-504393 CCR2 blockade in early-phase TAC pressure overload hypertrophy; format: in vivo; settings: for cardiac macrophage populations / numbers: before and after 1-wk TAC, 2 mg/kg twice daily oral gavage, FACS (FIG. 7), 2 mg/kg
T1 construct: tissue Jackson laboratory (mice); host or cells: whole animal: WT C57BL/6J mice; CCR2 on circulating classic monocytes / infiltrating macrophages
T1 sequence (P51683 whole entry): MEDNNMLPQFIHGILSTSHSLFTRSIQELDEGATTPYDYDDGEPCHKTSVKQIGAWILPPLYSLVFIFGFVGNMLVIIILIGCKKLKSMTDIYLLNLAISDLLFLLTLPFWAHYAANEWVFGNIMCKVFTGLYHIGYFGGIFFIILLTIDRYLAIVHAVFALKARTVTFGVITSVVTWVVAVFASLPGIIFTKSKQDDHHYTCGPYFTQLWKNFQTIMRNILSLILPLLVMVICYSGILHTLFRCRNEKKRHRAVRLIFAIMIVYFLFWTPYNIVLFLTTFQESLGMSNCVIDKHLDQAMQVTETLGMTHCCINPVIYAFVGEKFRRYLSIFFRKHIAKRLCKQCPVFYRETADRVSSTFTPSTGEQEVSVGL
Procedure: (§1) Macrophage depletion was achieved by injection (i.v.) of Clodronate liposomes at 500 ug/kg on every other day, starting from 1-day before or 14-day after cardiac surgery as indicated in specific experiments. PBS-containing liposomes were used as vehicle control (Veh). Clodronate liposomes and control liposomes were obtained from the nonprofit Consortium Foundation Clodronate Liposomes. To inhibit monocyte trafficking in vivo, RS-504393 was dissolved in DMSO, diluted 1:20 in PBS and administrated at 2 mg/kg twice daily by oral gavage, starting from 1-3 day before or 14-day after cardiac surgery as indicated in specific experiments. PBS with 5% DMSO was used as vehicle control.
Transverse aortic constriction (TAC) model and echocardiography were performed as described previously. Mice were anaesthetized by ketamine xylazine cocktail (100 uL i.p.) for TAC surgery to reduce aorta diameter to 27-gauge. Buprenorphine was administrated daily (i.p.) for first 5-days post-TAC. Blood pressure gradient across ligation site was confirmed by Doppler echography. For echocardiography, mice were anaesthetized by inhalation of 1% isoflurane vaporized in 100% oxygen. LV function was recorded at parasternal short axis view in B-mode and M-mode on a VEVO 770 High-Resolution In Vivo Micro-Imaging System (VisualSonics). ECHO data were recorded at steady heart rate above 500 bpm. LV function was calculated as ejection fraction (EF) or fractional shortening (FS).
Peritoneal macrophages were collected as described previously. Cardiac macrophages were gated from whole heart cells using surface antibodies (CD45+CD11b+F4/80+Ly6G-CD64+). Mouse heart is perfused, excised, minced, digested with Type I collagenase, mechanically disrupted and filtered through 70 μm cell strainer to get single cell suspension. Cells are collected by centrifugation, subjected to live-death dye and surface antibody staining, and analyzed by flow cytometry. Cells were also sorted by flow cytometry to collect cardiac macrophages. […] After RBC lysis, cells were stained with surface antibodies and analyzed by FACS. […]

CCR2 [2] = target: T1, CCR2; experiment: RS-504393 administration from day 14 post-TAC in established pressure overload hypertrophy; format: in vivo; settings: established POH
Procedure: as §1
Transverse aortic constriction (TAC) model and echocardiography were performed as described previously. […] LV function was recorded at parasternal short axis view in B-mode and M-mode on a VEVO 770 High-Resolution In Vivo Micro-Imaging System (VisualSonics). ECHO data were recorded at steady heart rate above 500 bpm. LV function was calculated as ejection fraction (EF) or fractional shortening (FS).
Tissue samples were homogenized in QIAzol lysis reagent (Qiagen, 79306) with a TissueLyser (Qiagen). […] Quantitative real-time PCR (qPCR) was performed with either the TaqMan method (Roche Universal ProbeLibrary System) or the SYBR green method on a ViiA 7 Real-Time PCR System (Applied Biosystems). […]

## Cc1ccc2c(c1)C1(CCN(CCc3nc(-c4ccccc4)oc3C)CC1)OC(=O)N2 [RS-504393]
CCR2 [1]
  cardiac macrophage populations / numbers: no effect
CCR2 [1]; listed as RS
  cardiac macrophage populations / numbers: no impact
CCR2 [1]; before and after 1 wk post-TAC, echocardiography (FIG. 3A), listed as RS
  cardiac function / POH: no effect; also recorded: no impact
CCR2 [2]; RS oral administration 2 wk after TAC (FIG. 16)
  cardiac hypertrophy: without affecting cardiac hypertrophy
CCR2 [2]; RS oral administration 2 wk after TAC, to 6-week post-TAC (FIG. 16)
  cardiac function (LV function by echocardiography): preserved cardiac function
